Assay results from patent US6555114B1, “Immunodominant human T-cell epitopes of hepatitis C virus” (Innogenetics N.V., priority 1993, dated 2003).

Tests used:
[1] = test system: PBMC's from 18 healthy control subjects; experiment: T cell proliferation assay with PBMC of healthy control subjects; type: cell-based, human; conditions: 17 control subjects, 23 proliferation assays
Procedure: As controls for the specificity of the lymphoproliferative responses, 18 healthy individuals aged 25-58 years (mean 38.6), 10 males and 8 females were selected. These subjects were negative for HCV antibodies and HCV-RNA.
The medium used for all cell cultures consisted of RPMI 1640 supplemented with 25 mM HEPES, 2 mM L-glutamine, 50 U/ml penicillin and 50 μg/ml streptomycin (all from Gibco Europe, Gent, Belgium), 5×10^−5 M 2-mercaptoethanol (Sigma, St. Louis, Mo.) and 10% heat-inactivated pooled human AB serum. This AB serum was obtained from healthy blood donors with blood group AB^+ and was only used when antibodies to HCV and HCV-RNA were absent. This “complemented” RPMI 1640 medium will hereafter be designated “complete medium”.
PBMC were isolated from heparinized venous blood by isopycnic density centrifugation on Ficoll Hypaque (Lymphoprep, Nyegaard, Denmark) and suspended in complete medium. […] PBMC in 200 μl of complete medium were cultured in 96 well round-bottomed microplates (Falcon Plastics) in the absence (unstimulated controls) or presence of varying concentrations of antigens for 5 days at 37° C. in an atmosphere of 5% CO2 in air. 0.5 μCi (^3H)-thymidine was then added to each well and 16 to 20 h later the cultures were harvested onto glass fiber filters using a multichannel cell harvester (PHD, Cambridge, Mass.) to measure the incorporation of (^3H)-thymidine by liquid scintillation counting in an LKB-Wallac 8100 counter (LKB, Bromma, Sweden). Results are expressed as stimulation index (SI; mean cpm of antigen-stimulated cultures/mean cpm of control cultures). Proliferation was considered positive when stimulation index was >3. In some figures the results are expressed as cpm (mean cpm of antigen-stimulated cultures—mean cpm of control cultures). Standard deviations of the mean cpm of triplicate cultures were consistently below 10%.
To analyze and summarize the results of 135 assays performed in the 32 HCV patients, we have chosen to consider the response of an individual patient to a particular antigen preparation (peptide pools 1 to 9, NS1-5*, NS1-7* or NS3 protein) as significant when it induces SI's 3 in at least half of the assays performed. The results shown in Table 4 have been obtained using this scoring method. […] The start of the Interferon therapy serves as the reference point, week 0. None of the patients responded to all the antigens. PBMC's from 13 of 18 (72%) clinical responders and 12 of 14 (85%) non-responders proliferated in response to at least one antigen preparation. All but one antigen preparation, peptide pool 8, induced a proliferative response in at least one subject. The most frequent responses were to peptide pools 2 and 3. Whereas both interferon-responders and non-responders proliferated equally well to peptide pool 2 (56% and 57%, respectively), non-responders reacted less well to peptide pool 3 (29% or 4 of 14) than responders (44% or 8 of 18). […] Clinical non-responders to interferon therapy also reacted more frequently (57 or 8 of 14) upon stimulation with the NS3 protein than responders (24% or 4 of 17). However, none of these differences in proliferative response rates to peptide pools 3, 5 and 9 or to NS3 protein reached statistical significance ([…] in ^2-test). […] Indeed, 8 of 17 responders recognized one or both peptides while none of the non-responders did so. A summary of the results of all these proliferation assays is provided in FIG. 2, in which the response rates of the HCV patients as well as 18 healthy control subjects towards the 12 antigen preparations. Indeed, to establish the relevance of the proliferative responses observed in HCV patients, PBMC's from 18 healthy control subjects were stimulated with the same antigen preparations. Overall, 27 assays were performed: a single assay in 10 subjects, two in 7 volunteers and 3 in one individual. In 12 control subjects none of the antigens induced a proliferative response. […]

[2] = test system: PBMC from 32 patients with chronic HCV; experiment: T cell proliferation assay ((3H)-thymidine incorporation, stimulation index) with PBMC of chronic HCV patients; type: cell-based, human
[3] = patient 626, αIFN responder (R), week 14 of αIFN therapy
[4] = patient 627, αIFN non-responder (NR), week 54 of αIFN therapy
[5] = patient 636, αIFN responder (R), week 28 of αIFN therapy
[6] = patient 637, αIFN non-responder (NR), week 45 of αIFN therapy

Sequence: LLSCLTVPASAYQVRNSTGL [C31]
- number of control subjects that recognized the single peptide [1]: 1
- share of control subjects that recognized the single peptide [1]: 6%
- stimulation index (SI), T-cell recognition ([2]; patient 620, αIFN non-responder (NR), week 20 of αIFN therapy): — (Only SI equal or greater than 3 are shown.)
- stimulation index (SI), T-cell recognition [2, 3]: — (Only SI equal or greater than 3 are shown.)
- stimulation index (SI), T-cell recognition [2, 4]: — (Only SI equal or greater than 3 are shown.)
- stimulation index (SI), T-cell recognition [2, 5]: — (Only SI equal or greater than 3 are shown.)
- stimulation index (SI), T-cell recognition [2, 6]: — (Only SI equal or greater than 3 are shown.)
- lymphoproliferative response (LPR) to peptide pools and single peptides ([2]; patient 639, IFN responder, LPR to pools 2 and/or 3, pools 4 assays, single peptides 2 assays): + (significant when it induces SI's 3 in at least half of the assays performed)

Sequence: LLSPRGSRPSWGPTDPRRRS (hepatitis C virus) [C17]
- number of control subjects that recognized the single peptide [1]: 2
- share of control subjects that recognized the single peptide [1]: 12%
- stimulation index (SI), T-cell recognition [2, 3]: — (Only SI equal or greater than 3 are shown.)
- stimulation index (SI), T-cell recognition [2, 4]: — (Only SI equal or greater than 3 are shown.)
- stimulation index (SI), T-cell recognition [2, 5]: — (Only SI equal or greater than 3 are shown.)
- stimulation index (SI), T-cell recognition [2, 6]: — (Only SI equal or greater than 3 are shown.)
